pEC50: −log10 of the molar value. Starred links: 1 amine or outer side, 2 acyl side, 3 side chain; linkers in the order of their positions; H or OH if unused. Positions of bridges follow the written chain, without caps; N, C: chain ends. Non-standard residues stand in square brackets, D forms with d. Residues, ends and D or L forms follow the SMILES beside them. ξ: configuration not given here. mXylylene = c1cc(C[*:1])cc(C[*:2])c1; ξhCys = NC(CCS)C(=O)O
How the values were obtained:
[1] = molecular target: Envelope glycoprotein gp160 (Human immunodeficiency virus 1) (UniProt Q6QLK5); test: Binding affinity to HIV1 GP41 using GP41 NHR derived N36 peptide assessed as melting temperature at 10 uM incubated for 30 mins by CD spectroscopy
Chain of Envelope glycoprotein gp160 (Human immunodeficiency virus 1) (Q6QLK5 1-814): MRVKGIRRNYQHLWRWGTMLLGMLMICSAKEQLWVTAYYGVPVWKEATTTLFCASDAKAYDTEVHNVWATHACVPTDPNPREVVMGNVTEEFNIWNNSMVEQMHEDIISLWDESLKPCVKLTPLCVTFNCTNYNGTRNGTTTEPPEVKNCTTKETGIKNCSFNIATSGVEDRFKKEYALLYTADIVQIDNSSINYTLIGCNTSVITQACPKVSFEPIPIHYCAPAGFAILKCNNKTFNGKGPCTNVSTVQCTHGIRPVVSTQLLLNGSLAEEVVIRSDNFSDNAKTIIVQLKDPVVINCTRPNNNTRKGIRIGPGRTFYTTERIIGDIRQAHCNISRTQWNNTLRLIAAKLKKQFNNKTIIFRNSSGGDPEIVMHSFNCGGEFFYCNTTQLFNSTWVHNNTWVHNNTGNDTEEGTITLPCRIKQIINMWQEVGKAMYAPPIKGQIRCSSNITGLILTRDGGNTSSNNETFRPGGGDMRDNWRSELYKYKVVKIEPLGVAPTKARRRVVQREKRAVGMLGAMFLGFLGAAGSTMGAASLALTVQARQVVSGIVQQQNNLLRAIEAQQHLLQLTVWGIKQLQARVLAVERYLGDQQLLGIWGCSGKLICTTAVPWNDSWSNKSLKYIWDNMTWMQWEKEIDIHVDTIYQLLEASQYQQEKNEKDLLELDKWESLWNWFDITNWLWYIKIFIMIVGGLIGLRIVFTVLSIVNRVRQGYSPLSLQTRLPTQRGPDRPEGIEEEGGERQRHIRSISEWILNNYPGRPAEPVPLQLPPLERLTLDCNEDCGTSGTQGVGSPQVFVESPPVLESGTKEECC

[2] = molecular target: Envelope glycoprotein gp160 (Human immunodeficiency virus 1) (UniProt Q6QLK5); test: Binding affinity to HIV1 GP41 using GP41 NHR derived N36 peptide assessed as molecular weight at 150 uM incubated for 30 mins by sedimentation Velocity analysis
[3] = tested on: Human immunodeficiency virus 1; test: Antiviral activity against HIV1 NL4-3 infected in human MT2 cells or CEMx174 5.25 M7 cells assessed as reduction in p24 Gag protein production at 5:1 compound to HP23 ratio measured at 4 days post-infection by ELISA; format: functional, organism-based; conditions: Human immunodeficiency virus 1, NL4-3, 96 h
[4] = tested on: Human immunodeficiency virus 1; test: (§1) Synergistic antiviral activity against T20 resistant HIV1 NL4-3 harboring with V38E/N42S mutant infected in human MT2 cells or CEMx174 5.25 M7 cells assessed as reduction in p24 Gag protein production by measuring combination index at 3500:1 compound to HP23 ratio measured at 4 days post-infection by ELISA; format: functional
[5] = tested on: Human immunodeficiency virus 1; test: Antiviral activity against T20 resistant HIV1 NL4-3 harboring with V38E/N42S mutant infected in human MT2 cells or CEMx174 5.25 M7 cells assessed as reduction in p24 Gag protein production at 14000:1 compound to HP23 ratio measured at 4 days post-infection by ELISA; format: functional, organism-based
[6] = tested on: Human immunodeficiency virus 1; test: as §1, with “V38E/N42T” for “V38E/N42S”, “600:1” for “3500:1”; format: functional
[7] = tested on: Human immunodeficiency virus 1; test: (§2) Ratio of EC50 for antiviral activity against T20 resistant HIV1 NL4-3 harboring with V38E/N42T mutant infected in human MT2 cells or CEMx174 5.25 M7 cells in absence of HP23 to EC50 for Antiviral activity against T20 resistant HIV1 NL4-3 harboring with V38E/N42T mutant infected in human MT2 cells or CEMx174 5.25 M7 cells at 150:1 compound to HP23 ratio; format: functional
[8] = tested on: Human immunodeficiency virus 1; test: Synergistic antiviral activity against T2635 resistant HIV1 LAI harboring Q66R mutant infected in human MT2 cells or CEMx174 5.25 M7 cells assessed as reduction in p24 Gag protein production by measuring combination index at 25:1 compound ratio measured at 4 days post infection by ELISA; format: functional, M:B_Lai
[9] = tested on: Human immunodeficiency virus 1; test: as §2, with “T2635” for “T20”, “LAI” for “NL4-3”, “Q66R” for “with V38E/N42T”, “antiviral” for “EC50 for Antiviral”, “12.5:1 ratio of” for “150:1”, “HP23” for “HP23 ratio”; format: functional, M:B_Lai
[10] = Metabolic stability of the compound assessed as Proteinase K (unknown origin)-mediated compound hydrolysis by measuring parent compound remaining at 3 to 100 uM after 4 hrs by RP-HPLC analysis; format: ADME; conditions: human, read-out: Stability
[11] = molecular target: Envelope glycoprotein gp160 (Human immunodeficiency virus 1) (UniProt Q6QLK5); test: Ratio of EC50 for inhibition of HIV1 gp41-induced cell-cell fusion between viral envelope expressing human HL2/3 cells to CD4/CCR5 receptor expressing TZM-bl cells in absence of HP23 to EC50 for inhibition of HIV1 gp41-induced cell-cell fusion between viral envelope expressing human HL2/3 cells to CD4/CCR5 receptor expressing TZM-bl cells at 2:1 ratio of hCS6ERE to compound
[12] = tested on: Human immunodeficiency virus 1; test: Ratio of EC50 for antiviral activity against X4 tropic HIV-1 subtype-B 3B infected in human MT2 cells or CEMx174 5.25 M7 cells in absence of hCS6ERE to EC50 for antiviral activity against X4 tropic HIV-1 subtype-B 3B infected in human MT2 cells or CEMx174 5.25 M7 cells at 24:1 ratio of hCS6ERE to compound; format: functional, HIV-1 group M
[13] = tested on: Human immunodeficiency virus 1; test: Antiviral activity against R5 tropic HIV-1 subtype-B Bal infected in human MT2 cells or CEMx174 5.25 M7 cells assessed as reduction in p24 Gag protein production at 6:1 ratio of hCS6ERE to compound measured at 4 days post-infection by ELISA; format: functional, cell-based, HIV-1 group M; conditions: Human immunodeficiency virus 1, Bal, 96 h
[14] = tested on: Human immunodeficiency virus 1; test: Antiviral activity against R5 tropic HIV-1 subtype-B Bal infected in human MT2 cells or CEMx174 5.25 M7 cells assessed as reduction in p24 Gag protein production at 12:1 ratio of hCS6ERE to compound measured at 4 days post-infection by ELISA; format: functional, cell-based, HIV-1 group M; conditions: Human immunodeficiency virus 1, Bal, 96 h
[15] = tested on: Human immunodeficiency virus 1; test: Antiviral activity against HIV1 NL4-3 infected in human MT2 cells or CEMx174 5.25 M7 cells assessed as reduction in p24 Gag protein production at 10:1 hCS6ERE to compound ratio measured at 4 days post-infection by ELISA; format: functional, organism-based; conditions: Human immunodeficiency virus 1, NL4-3, 96 h
[16] = tested on: Human immunodeficiency virus 1; test: Ratio of EC50 for antiviral activity against HIV1 NL4-3 infected in human MT2 cells or CEMx174 5.25 M7 cells in absence of hCS6ERE to EC50 for antiviral activity against HIV1 NL4-3 infected in human MT2 cells or CEMx174 5.25 M7 cells at 5:1 hCS6ERE to compound ratio; format: functional
[17] = tested on: Human immunodeficiency virus 1; test: Antiviral activity against T20 resistant HIV1 NL4-3 harboring with V38E/N42S mutant infected in human MT2 cells or CEMx174 5.25 M7 cells assessed as reduction in p24 Gag protein production at 14000:1 hCS6ERE to compound ratio measured at 4 days post-infection by ELISA; format: functional, organism-based
[18] = tested on: Human immunodeficiency virus 1; test: as §2, with “V38E/N42S” for “V38E/N42T”, “hCS6ERE” for “HP23”, “antiviral” for “Antiviral”, “14000:1 hCS6ERE to” for “150:1”, “compound” for “compound to HP23”; format: functional
[19] = tested on: Human immunodeficiency virus 1; test: as §2, with “hCS6ERE” for “HP23”, “300:1 hCS6ERE to” for “150:1”, “compound” for “compound to HP23”; format: functional
[20] = tested on: Human immunodeficiency virus 1; test: as §2, with “hCS6ERE” for “HP23”, “600:1 hCS6ERE to” for “150:1”, “compound” for “compound to HP23”; format: functional
[21] = tested on: Human immunodeficiency virus 1; test: Antiviral activity against T2635 resistant HIV1 LAI harboring Q66R mutant infected in human MT2 cells or CEMx174 5.25 M7 cells assessed as reduction in p24 Gag protein production at 12.5:1 ratio of hCS6ERE to compound measured at 4 days post infection by ELISA; format: functional, organism-based, M:B_Lai

`CC[C@H](C)[C@H](NC(C)=O)C(=O)N[C@@H](CCC(=O)O)C(=O)N[C@@H](CCC(=O)O)C(=O)N[C@@H](CC(C)C)C(=O)N[C@H](C(=O)NC1CCSCc2cccc(c2)CSCCC(C(=O)N[C@@H](CCC(N)=O)C(=O)N[C@@H](CCC(N)=O)C(=O)N[C@@H](CCCNC(=N)N)C(=O)N[C@@H](CCCCN)C(=O)N[C@@H](CC(N)=O)C(=O)N[C@@H](CCC(=O)O)C(=O)N[C@@H](CCC(=O)O)C(=O)N[C@@H](C)C(=O)N[C@@H](CC(C)C)C(=O)N[C@@H](CCCNC(=N)N)C(=O)N[C@@H](CCC(=O)O)C(=O)N[C@@H](CC(C)C)C(N)=O)NC(=O)[C@H](CCC(N)=O)NC(=O)[C@H](C)NC(=O)[C@H](C)NC1=O)[C@@H](C)CC` (stereo partly specified) (Ac-IEELI[ξhCys]AAQ[ξhCys]QQRKNEEALREL-NH2; linker 6-10 via mXylylene) gave a Tm [1] of 57.6 °C, an Activity [2] of 19.2 kDa and a pEC50 [3] of 8.36. For the same compound, the CI [4] was 0.7, the pEC50 [5] was 5.50 and the CI [6] was 0.7. The “Ratio EC50” value [7] was 3.1, the CI [8] was 0.8 and the “Ratio EC50” value [9] was 3.8. The remaining at 4 h, up to 100 µM [10] was 100%.

With H-EMTWEEWEKKIEEYTKKIEEILK-OH the Ratio EC50 [11] was 2, the “Ratio EC50” value [12] was 3.6 and the pEC50 [13] was 9.00. For the same compound, the pEC50 [14] was 9.30, the pEC50 [15] was 9.05 and the “Ratio EC50” value [16] was 3.8. For the same compound, the pEC50 [17] was 9.70, the “Ratio EC50” value [18] was 7 and the “Ratio EC50” value [19] was 2.9. For the same compound, the “Ratio EC50” value [20] was 5.1 and the pEC50 [21] was 8.74.

Reference: ChEMBL document CHEMBL4334495, “Design and Biological Evaluation of m-Xylene Thioether-Stapled Short Helical Peptides Targeting the HIV-1 gp41 Hexameric Coiled-Coil Fusion Complex” (J Med Chem, 2019)
